Data reported in patent publication US9220794B2, “Two-photon fluorescent probes for imaging of total sulfide in live cell and tissue, and quantitative estimation of total sulfide concentration using the same” (Korea University Research and Business Foundation, priority 2013, dated 2015).

What was measured:
rat colon tissue [1] = assay: Ratiometric TPM imaging (F2/F1) of rat colon slices; assay type: in vivo; details: rats given 5-FU 150 mg/kg i.p., 8 hours, probe 2-6
Experimental: The utility of the compound of [Chemical Formula 2-6] was investigated in living tissues from a 5-week-old rat colon. The inventors were particularly interested in the mucosa, muscularis mucosae and submucosa because they are invaded in the early stage of tumor (FIG. 4c). Since it takes a long time to stain the tissues during which they may be deformed, excess amount (20 μM) of the compound of [Chemical Formula 2-6] was used to facilitate staining.
Because the structure of the colon tissue is heterogeneous, TPEF intensities were acquired from 150 sections along the z-direction at a depth of about 90-170 μm using two detection windows (1 and 2) to visualize the overall sulfide distribution.
Therefore, the sections were divided into two regions and they were assigned as mucosa (90-150 μm) and submucosa including the muscularis mucosae (151-170 μm).
(§1) Male Sprague-Dawley rats (235-265 g) were divided into two groups (5-FU and control groups). In the 5-FU group, 150 mg/kg of 5-FU (SoloPak Laboratories, Franklin Park, Ill.) were intraperitoneally injected into the rats. The rats of the control group were injected with saline. Each group consisted of 4 rats.
All the rats were injected between 9 pm and 12 midnight, were allowed free access to food and water and were housed in the same room with 8-hour cycles.
(§2) 8 hours after the intraperitoneal injection, all the rats were sacrificed. Laparotomy was performed after anesthetizing the rats.
Slices were prepared from the colon of the rats. The colon slices were cut into 2-cm long segments, opened by longitudinal incision and then treated with Dulbecco's phosphate-buffered saline (D-PBS; […]).
The colon slices were incubated with the compound of [Chemical Formula 2-6] (20 μM) in D-PBS bubbled with 95% O2 and 5% CO2 at 37° C. The colon slices were then moved to glass-bottomed dishes, washed 3 times with D-PBS and observed under a confocal multiphoton microscope.
TPEF intensities were collected using detection windows of 390-450 nm and 520-650 nm, with 110 sections at a depth of 90-150 μm (mucosa) and 40 sections at a depth of 151-170 μm (submucosa).
Then ratiometric images were constructed from the TPEF intensities collected using the two detection window. The F2/F1 ratio was expressed as mean±SD and p was set to be smaller than 0.05.

rat colon tissue [2] = assay: Kinetic measurement of total sulfide in rat colon tissue slices; assay type: in vivo; details: probe 2-6; for kobs in colon tissue: after 5-FU 150 mg/kg i.p., 8 hours; for total sulfide concentration in colon tissue: after 5-FU treatment
Experimental: To quantitatively estimate the total sulfide concentration, kinetic experiments were performed in the colon tissue labeled with the compound of [Chemical Formula 2-6].
as §1, §2
Kinetic experiments in rat colon tissue were performed using four colon slices obtained from four rats. Two sets of experiments were performed for each slice. In each set, TPEF intensities from 8 ROI's/section were collected at depths of 90-150 μm (mucosa) and 151-170 μm (submucosa) in the colon tissue labeled with the compound of [Chemical Formula 2-6] and averaged.
The rate constant (kobs) was measured from 7 and 3 sections of the mucosa and submucosa tissues, respectively, in order to obtain 112 kobs and 48 kobs values, respectively. The rate constant (kobs) was expressed as mean±SD and p was set to be smaller than 0.05.

[3] = One-photon absorption and emission spectra, fluorescence quantum yield; assay type: physicochemical; details: for 10^−4 ε: value is ε×10^−4
Experimental: The solvatochromic effect observed for the compound of [Chemical Formula 2-6] may have resulted from the […] dipole moment.
Absorption spectra were recorded on the Hewlett-Packard 8453 diode array spectrophotometer and fluorescence spectra were obtained with the Amico-Bowman series 2 luminescence spectrometer with a 1-cm standard quartz cell.

[4] = Measurement of two-photon cross section (fs fluorescence technique, rhodamine 6G reference); assay type: physicochemical; details: for Φδmax, two-photon action cross section: uncertainty ±15%
Experimental: Two-photon cross section (δ) was determined using a femtosecond (fs) fluorescence measurement technique.
The compound of [Chemical Formula 2-5] and the compound of [Chemical Formula 2-6] were dissolved in 20 mM HEPES buffer (pH 7.2) and 3.0×10^−6 M HEPES/EtOH (1/1) and then two-photon induced fluorescence intensity was measured at 740-940 nm using rhodamine 6G as a reference, whose two-photon property has been well characterized. The two-photon fluorescence intensities of the reference and the compound of [Chemical Formula 2-6] and the compound of [Chemical Formula 2-5] were determined.
The two-photon cross section was calculated from δ=δr(Ssφrφrcr)/(Srφsφscs). In the equation, the subscripts s and r stand for the sample, i.e., the compound of [Chemical Formula 2-6] and the compound of […], respectively. S denotes the intensity of the signal collected using a CCD detector, φ is the fluorescence quantum yield (measured using coumarin 307 and rhodamine B according to the literature), […] fluorescence collection efficiency, and c is the number density of molecules in solution. δr is the two-photon cross section of the reference molecule.

HeLa cells [5] = assay: Two-photon excited fluorescence spectra of labeled HeLa cells; assay type: cell-based, human
Experimental: Accordingly, it can be seen that HEPES/EtOH (1/1) has polarity similar to that of the cellular environment.
This confirms again that HEPES/EtOH (1/1) is a good model of the cellular environment and HS^− can be detected by TPM using the compound of [Chemical Formula 2-6].
HeLa human cervical carcinoma cells were acquired from the ATCC (Manassas, Va., USA). The cells were cultured in DMEM (WelGene, Inc., Seoul, Korea) supplemented with heat-inactivated 10% FBS (WelGene), penicillin (100 units/mL) and streptomycin ([…]).
For labeling, the growth medium was removed and replaced with DMEM without FBS. The cells were incubated with the compound of [Chemical Formula 2-6] ([…]) for 30 minutes, washed 3 times with FBS-free DMEM and imaged.
The TPM images were obtained with the DM IRE2 microscope (Leica) by exciting the probes with a mode-locked titanium-sapphire laser source (Coherent Chameleon, 90 MHz, 200 fs) set at a wavelength of 750 nm and an output power of 1380 mW, which corresponded to an average power of approximately 2 mW in the focal plane.

[6] = pH sensitivity of the fluorescence; assay type: physicochemical; details: biologically relevant pH range
HeLa cells [7] = assay: Kinetic estimation of total sulfide concentration in HeLa cells (TPEF); assay type: cell-based, human
Experimental: To quantitatively estimate the total sulfide concentration in living cells, the TPEF intensity of HeLa cells labeled with the compound of [Chemical Formula 2-6] was monitored in the absence and presence of Na2S, cysteine (Cys) and glutathione (GSH) with 20-30 minute intervals.
Since H2S and HS^− are in equilibrium and [H2S]/[HS^−]=[H^+]/Ka=0.794 in HEPES/EtOH (1/1, pH=7.2), it seems appropriate to present the total sulfide concentration ([H2S]+[HS^−]).
Kinetic experiments in HeLa cells were conducted in the same manner except that TPEF intensities from HeLa cells labeled with the compound of [Chemical Formula 2-6] upon excitation at 750 nm were monitored with 20-30 minute intervals.
The average TPEF intensities at given time and the SB2/SA1 ratio was obtained by dividing the TPEF intensity of [Chemical Formula 2-6] at 390-450 nm by that of [Chemical Formula 2-5] at 525-650 nm in the HeLa cells (FIG. 1b) were used in the kobs calculation.
The kobs value was measured at 10 regions of interest (ROIs) from three independent cell lines.
To evaluate the effect of Na2S, cysteine and GSH, HeLa cells were incubated with the compound of [Chemical Formula 2-6] (2 μM) and then treated with Na2S (100, 300 μM), cysteine (500 μM) and GSH (500 μM) for 30 minutes. The cells were then washed 3 times with FBS-free DMEM and subjected to kinetic measurement.

physchem = details: pH 7.2
Experimental: The pKa value of H2S in HEPES/EtOH (1/1, pH 7.2) was estimated by using the following equations. HS^−+H2O⇄H2S+HO^− K1=[H2S][HO^−]/[HS^−] (1) H2O⇄H^++HO^− Kw=[H^+][HO^−] (2) H2S⇄H^++HS^− Ka=[H^+][HS^−]/[H2S]=Kw/K1 (3)
First, the pH of the solution containing 10.0 mM NaSH was measured in H2O/EtOH (1/1) at 37.0° C. using a pH meter.
The K1 value was calculated from the equation (1) using [HS^−]o=10.0 mM and pH=9.00.
The pKa value of H2S in HEPES/EtOH (1/1, pH 7.2) was then calculated from the equation (3) using K1=1.00×10^−8M and pKw=15.10 reported in H2O/EtOH (1/1).

[8] = HEPES buffer (20 mM HEPES, 100 mM KCl, pH 7.4)
[9] = cells treated with 500 μM additive, probe 2-6

For `O=c1[nH]cc(F)c(=O)[nH]1` [5-fluorouracil, reference compound], the “emission ratio F2/F1” value (rat colon tissue [1]; mucosal layer) was 0.98±0.07, the “emission ratio F2/F1” value (rat colon tissue [1]; submucosa) was 0.84±0.05 and the “kobs in colon tissue” value (rat colon tissue [2]; mucosa) was “(4.0±0.7)×10^−5 s^−1”. For the same compound, the “total sulfide concentration in colon tissue” value (rat colon tissue [2]; mucosa) was 14 ± 3 µM, the “kobs in colon tissue” value (rat colon tissue [2]; submucosa) was “(2.3±0.6)×10^−5 s^−1” and the “total sulfide concentration in colon tissue” value (rat colon tissue [2]; submucosa) was 7.9 ± 2.2 µM.
With `COCCOCCC1(CCOCCOC)c2cc(N)ccc2-c2ccc(-c3nc4ccccc4s3)cc21` [Chemical Formula 2-5] the “Δλ^FImax, shift of emission spectrum with solvent polarity” value ([3]; 1,4-dioxane<DMF<EtOH<HEPES/EtOH (1/1)<HEPES buffer) was 95 nm, the “Φ, fluorescence quantum yield” value ([3]; EtOH) was 0.87 and the “λ^(1)max, one-photon absorption maximum” value ([3]; EtOH) was 381 nm. For the same compound, the “λ^flmax, one-photon emission maximum” value ([3]; EtOH) was 498 nm, the “10^−4 ε” value ([3]; EtOH) was “(4.81) M^−1cm^−1” and the “Φ, fluorescence quantum yield” value ([3]; HEPES buffer) was 0.46. The “λ^(1)max, one-photon absorption maximum” value [3, 8] was 363 nm, the “λ^flmax, one-photon emission maximum” value [3, 8] was 548 nm and the “ε at maximum absorption” value ([3]; HEPES buffer, pH 7.4) was 39100 M⁻¹ cm⁻¹. For the same compound, the “Φ, fluorescence quantum yield” value ([3]; HEPES/EtOH (1/1)) was 0.81, the “λ^(1)max, one-photon absorption maximum” value ([3]; HEPES/EtOH (1/1)) was 368 nm and the “λ^flmax, one-photon emission maximum” value ([3]; HEPES/EtOH (1/1)) was 530 nm. The “10^−4 ε” value ([3]; HEPES/EtOH (1/1)) was “(4.77) M^−1cm^−1”, the “10^−4 ε” value ([3]; HEPES) was “(3.91) M^−1cm^−1” and the “λ^(2)max, two-photon maximum” value ([4]; HEPES) was 750 nm. The “Φδmax, two-photon action cross section” value ([4]; HEPES buffer, 2-6 at 740 nm, 2-5 at 750 nm) was 52 GM, the “λ^(2)max, two-photon maximum” value ([4]; HEPES/EtOH (1/1)) was 750 nm and the “increase of action cross section (φδ) in HEPES/EtOH (1/1) versus HEPES buffer” value ([4]; HEPES/EtOH (1/1) vs HEPES buffer) was “about 2 fold”. For the same compound, the “Φδmax, two-photon action cross section” value ([4]; HEPES/EtOH (1/1), GM = 10^−50 cm^4s/photon) was 94 GM, the “λ^flmax, maximum emission in cells” value (HeLa cells [5]) was 520 nm and the pH sensitivity [6] was “pH-insensitive”.
With `N[C@@H](CS)C(=O)O` [Cys, cysteine] the “kobs in labeled HeLa cells” value (HeLa cells [7]; [9]) was “(1.4±0.7)×10^−6 s^−1” and the “total sulfide concentration ([H2S]+[HS^−]) in HeLa cells” value (HeLa cells [7]; [9]) was 0.50 ± 0.23 µM.
In the case of `N[C@@H](CCC(=O)N[C@@H](CS)C(=O)NCC(=O)O)C(=O)O` [GSH, glutathione], the “kobs in labeled HeLa cells” value (HeLa cells [7]; [9]) is reported as “(6.3±1.8)×10^−6 s^−1” and the “total sulfide concentration ([H2S]+[HS^−]) in HeLa cells” value (HeLa cells [7]; [9]) is reported as 2.2 ± 0.6 µM.
`S` [H2S, Hydrogen sulfide] gave a pKa (physchem) of 7.1.
For `[Na+].[Na+].[S-2]` [Na2S], the “kobs in labeled HeLa cells” value (HeLa cells [7]; cells pretreated with 100 μM Na2S, probe 2-6) was “(2.6±0.9)×10^−6 s^−1”, the “total sulfide concentration ([H2S]+[HS^−]) in HeLa cells” value (HeLa cells [7]; cells pretreated with 100 μM Na2S, from kobs, k2=5.17 M^−1s^−1, [H2S]/[HS^−]=0.794) was 0.90 ± 0.32 µM and the “kobs in labeled HeLa cells” value (HeLa cells [7]; cells pretreated with 300 μM Na2S, probe 2-6) was “(7.9±1.9)×10^−6 s^−1”. The “total sulfide concentration ([H2S]+[HS^−]) in HeLa cells” value (HeLa cells [7]; cells pretreated with 300 μM Na2S, from kobs, k2=5.17 M^−1s^−1, [H2S]/[HS^−]=0.794) was 2.7 ± 0.7 µM.
